Experimental data as given in patent US5407946A, “Pyrrolidine compounds which are useful as thromboxane AZ-inhibitors” (Adir et Compagnie, priority 1992, dated 1995).

Legend:
thromboxane receptors = biological target: T1, thromboxane receptors (Cavia porcellus, UniProt A0A286Y4I8); assay: IC50 on the tracheal pressure in guinea pigs (bronchoconstriction induced by U46619 in vivo); settings: guinea pig, iv, 5 min; anesthetized guinea pigs, antagonist injected 5 minutes before U46619 (2 μg/kg i.v.), jugular vein; read-out: IC50, antagonist dose which inhibits by 50% the increase in tracheal pressure caused by U46619
T1 construct: U46619 causes a bronchoconstriction which results in an increase in tracheal pressure; from tissue; host or cells: whole anesthetized guinea pig (in vivo, airways)
T1 sequence (A0A286Y4I8 1-347): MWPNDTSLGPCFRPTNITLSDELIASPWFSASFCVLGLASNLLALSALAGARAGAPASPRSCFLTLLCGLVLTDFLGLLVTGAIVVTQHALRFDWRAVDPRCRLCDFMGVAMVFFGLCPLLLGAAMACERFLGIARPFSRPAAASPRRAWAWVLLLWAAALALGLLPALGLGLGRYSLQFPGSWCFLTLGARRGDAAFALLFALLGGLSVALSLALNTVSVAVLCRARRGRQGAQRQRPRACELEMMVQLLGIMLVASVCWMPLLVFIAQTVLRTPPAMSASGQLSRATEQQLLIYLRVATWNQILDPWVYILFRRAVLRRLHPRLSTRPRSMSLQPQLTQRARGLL
From the text: Male albino guinea pigs (350-400 g), subjected to an 18-hour water diet, are anesthetized with ethylcarbamate (1.25 g/kg i.p.). A catheter is introduced into the carotid artery in order to measure the blood pressure by means of a pressure cell. A second catheter is introduced introduced into the jugular vein and is used for injecting the pharmacological substances. The trachea is cannulated and the guinea pig is placed under assisted respiration by means of a respirator. The temperature of the animal is kept at 37° C. by means of a thermostated cover. A needle pricked into the tracheal cannula is connected to a pressure cell and allows the tracheal pressure to be recorded. The guinea pigs are pretreated with d-tubocurarine (1 mg/kg i.v.) and with indomethacin (10 mg/kg i.v.). Injected at a dose of 2 μg/kg i.v., U46619 causes a bronchoconstriction which results in an increase in tracheal pressure and induces an increase in blood pressure. The responses to U46619 are reversible and reproducible if the injections are performed every 10 minutes.
The antagonists of thromboxane receptors are injected 5 minutes before the injections of U46619. The antagonist dose which inhibits by 50% the increase in tracheal pressure caused by U46619 is determined (IC50).

TXA2 receptors [1] = biological target: T2, TXA2 receptors (Cavia porcellus, UniProt A0A286Y4I8); assay: Determination of the pA2 values on guinea pig trachea (contractions caused by U46619); format: cell-based; settings: guinea pig tracheal rings, 37° C., agonist U46619 10^-9 M to 10^-5 M, antagonist contact 20 minutes; read-out: pA2 (negative logarithm of the concentration of antagonist in the presence of which twice the amount of agonist is required for the same effect) (converted)
T2 construct: the trachea is rapidly removed and then cut out into rings containing two cartilages; from tissue; host or cells: guinea pig trachea rings
T2 sequence (A0A286Y4I8 1-347): T1 sequence (A0A286Y4I8 1-347)
Protocol: 400-500-gram albino male guinea pigs were sacrificed by striking the nape of the neck and by pulling the neck. The throat is cut and the trachea is rapidly removed and then cut out into rings containing two cartilages. These rings are mounted between two hooks in cuvettes thermostated at 37° C., containing physiological saline (composition in mM: 118 NaCl; 25 NaHCO3; 10 glucose; 4.7 KCl; 1.25 CaCl2; 1.19 MgSO4; 1.14 KH2 PO4).
The physiological saline is bubbled with a mixture of 95% O2 -5% CO2. The bottom hook constitutes the fixed point while the upper hook is connected to an isometric force sensor. The tissues are placed under a basal tension of 3.5 grams. The pharmacological substances studied are prepared immediately before use. The drugs are solubilized in water or in dimethyl sulfoxide.
After mounting, the preparations are allowed to stand for 90 minutes, rinsings being carried out every 30 minutes. After readjusting the basal tension, a contraction generated by a single dose of agonist (U46619; 10^-5 M) is generated in order to stabilize subsequent contractions. After washing and returning to the base line, a first effect/concentration curve is produced by the addition of cumulative doses of U46619 (10^-9 M to 10^-5 M; the interval between the doses is a semilog). This first experiment makes it possible to calculate the effective concentration 50% (EC50) "control".
This EC50 is routinely calculated in the following manner: the tension values are first converted to percentages relative to the maximum effect, these percentages are then plotted on a graph with the percentages on the y-axis and the log(concentration) values on the x-axis. A linear regression is then performed on the points between 10% and 90% (which corresponds to the linear portion of the sigmoid curve). The concentration corresponding to half maximum effect (50%) can be easily calculated by means of the parameters of the straight line.
After washing and returning to the base line, the organ is placed in contact with the antagonist ([…]) for 20 minutes. A second effect/concentration curve is then produced in the presence of the antagonist and the "treated" EC50 can then be calculated. All the elements required for calculating the pA2 (competitive antagonism) or the pD2 (noncompetitive antagonism) are thus available.
The pA2 (which represents the negative logarithm of the concentration of antagonist in the presence of which twice the amount of agonist is required in order to obtain the same effect) is determined by plotting on a graph the log((L/l)-1) values relative to the log(concentration of antagonist), with L=effect in the presence of antagonist and 1=control effect. In this test, the pA2 values for the compounds of Examples 14 and 18 are as follows: […]

TXA2 receptors [2] = biological target: T3, TXA2 receptors (Oryctolagus cuniculus, UniProt Q6WQI8); assay: Platelet aggregation induced by U46619 in rabbit platelet-rich plasma (PRP); format: cell-based; settings: 37° C., antagonist added 3 min before U46619 (1.2 μM), read-out: IC50, concentration which induces 50% inhibition of the aggregation response induced by U46619
T3 construct: citrated platelet-rich plasma, U46619-induced aggregation
T3 sequence (Q6WQI8 1-233): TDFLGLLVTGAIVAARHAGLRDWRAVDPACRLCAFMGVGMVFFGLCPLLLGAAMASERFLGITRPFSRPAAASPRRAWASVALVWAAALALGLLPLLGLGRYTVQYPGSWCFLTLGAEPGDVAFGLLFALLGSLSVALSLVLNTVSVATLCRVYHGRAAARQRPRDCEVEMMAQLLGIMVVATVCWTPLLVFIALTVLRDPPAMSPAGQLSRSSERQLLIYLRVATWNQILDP
Protocol: The rabbits (2-3 kg) are anesthetized with sodium pentobarbital (30 mg/kg i.v.). After cannulation of the left carotid artery, the blood is collected over sodium citrate (0.109 M) (1 vol. of citrate per 9 vol. of blood).
The plasma which is high in platelets (PRP) is obtained by centrifugation (20° C.) at 250 g for 20 minutes and the plasma which is low in platelets (PPP) by centrifugation at 1000 g (10 min). The number of platelets (PL) in the PRP is adjusted to between 300-350,000 pl/mm^3 by dilution with autologous PPP. The PRP is stored at room temperature up to the time of the test and is used within 4 hours following the collection. Platelet aggregation is performed at 37° C. in glass tubes siliconized by means of an aggregometer. The PRP and PLs are stirred at 1000 rpm (revolution per minute). In order to study the activity of the thromboxane antagonists, the PRP is incubated for 1 min at 37° C., and the antagonist is then added for a period of 3 min before adding the agonist U46619 (1.2 μM). The final volume of the cuvette is then 250 μl. The extent of platelet aggregation is determined by measuring the maximum amplitude of the aggregation plots and is expressed as a percentage of light transmission (% T). The activity of the antagonists is expressed as IC50, that is to say the concentration of the substance which induces 50% inhibition of the aggregation response induced by U46619.

SMILES	ED50 (thromboxane receptors) [mg/kg]	Kb (TXA2 receptors [1]) [nM]	IC50 (TXA2 receptors [2]) [nM]
O=C(O)CCC/C=C\[C@@H]1CN(Cc2ccccc2)C[C@@H]1c1ccccc1O (relative stereo) [Example 13, (5Z) -6-[(3α,4α) -1-Benzyl-4-(2-hydroxyphenyl)pyrrolidin-3-yl]hex-5-enoic acid]	2.28	–	–
O=C(O)CCC/C=C\C[C@@H]1CN(Cc2ccccc2)C[C@@H]1c1ccccc1O (relative stereo) [Example 14, (5Z)-7-[(3α,4α)-1-Benzyl-4-(2-hydroxyphenyl)pyrrolidin-3-yl]hept-5-enoic acid]	1.02	282	–
O=C(O)CC/C=C\C[C@@H]1CN(Cc2ccccc2)C[C@@H]1c1ccccc1O (relative stereo) [Example 15, (4Z) -6[(3α,4α) -1-Benzyl-4-(2-hydroxyphenyl)pyrrolidin-3-yl]hex-4-enoic acid]	0.177	–	–
O=C(O)CC/C=C\C[C@@H]1CN(S(=O)(=O)c2ccc(Cl)cc2)C[C@H]1c1ccccc1O (relative stereo) [Example 18, (4Z)-6-[(3α, 4β)-1-(4-Chlorophenylsulfonyl)-4-(2-hydroxyphenyl)pyrrolidin-3-yl]hex-4-enoic acid]	0.03	7.94	5400
CC(C)C(=O)N1C[C@@H](C/C=C\CCC(=O)O)[C@@H](c2ccccc2O)C1 (relative stereo) [Example 19]	0.1	200	–
O=C(O)CC/C=C\C[C@@H]1CN(C(=O)Nc2ccccc2)C[C@@H]1c1ccccc1O (relative stereo) [Example 22, (4Z)-6-[(3α,4α)-1-Phenylaminocarbonyl-4-(2-hydroxyphenyl)pyrrolidin-3-yl]hex-4-enoic acid]	1.21	–	4000
O=C(O)CC/C=C\C[C@@H]1CN(S(=O)(=O)c2cccc3cnccc23)C[C@@H]1c1ccccc1O (relative stereo) [Example 24, (4Z)-6-[(3α,4α)-1-[(Isoquinol-5-yl)sulfonyl]-4-(2-hydroxyphenyl)pyrrolidin-3-yl]hex-4-enoic acid]	0.01	0.316	800
O=C(O)CC/C=C\C[C@@H]1CN(S(=O)(=O)c2cccc3cnccc23)C[C@H]1c1ccccc1O (relative stereo) [Example 25, (4Z)-6-[(3α,4β)-1-[(Isoquinol-5-yl)sulfonyl]-4-(2-hydroxyphenyl)pyrrolidin-3-yl]hex-4-enoic acid]	0.06	–	5000
O=C(O)CC/C=C\C[C@@H]1CN(S(=O)(=O)c2cccc3ccccc23)C[C@@H]1c1ccccc1O (relative stereo) [Example 28]	0.01	1.58	500
O=C(O)CCC/C=C\C[C@@H]1CN(S(=O)(=O)c2cccc3cnccc23)C[C@@H]1c1ccccc1O (relative stereo) [Example 30, (5Z-7-[(3α,4α)-1-[(Isoquinolyl-5-yl)sulfonyl]-4-(2-hydroxyphenyl)pyrrolidin-3-yl)]hept-5-enoic acid]	0.08	–	500

Continued, in another order:

ED50 (thromboxane receptors) [mg/kg]	Kb (TXA2 receptors [1]) [nM]	SMILES	IC50 (TXA2 receptors [2]) [nM]
1.31	–	CC(C)C(=O)N1C[C@@H](C/C=C\CCC(=O)O)[C@H](c2ccccc2O)C1 (relative stereo) [Example 20, (4Z)-6-[(3α,4β)-1-Isobutyroyl-4-(2-hydroxyphenyl)pyrrolidin-3-yl]hex-4-enoic acid]	–
1.03	1580	O=C(O)CC/C=C\C[C@H]1CN(Cc2cccnc2)C[C@H]1c1ccccc1O (relative stereo) [Example 21, (4Z)-6-[(3α, 4α)-4-(2-hydroxyphenyl)-1-[(3-pyridyl)methyl]pyrrolidin-3-yl]hex-4-enoic acid]	–
0.43	20	CCCCCCC(=O)N1C[C@@H](C/C=C\CCC(=O)O)[C@@H](c2ccccc2O)C1 (relative stereo) [Example 23, (4Z)-6-[(3α,4α)-1-Heptanoyl-4-(2-hydroxyphenyl)pyrrolidin-3-yl]hex-4-enoic acid]	–
0.03	–	O=C(O)CC/C=C\C[C@@H]1CN(S(=O)(=O)c2cccc3cccnc23)C[C@@H]1c1ccccc1O (relative stereo) [Example 27, (4Z)-6-[(3α,4α)-1-[(Quinol-8-yl)sulfonyl]-4-(2-hydroxyphenyl)pyrrolidin-3-yl]hex-4-enoic acid]	–
0.11	–	O=C(O)CC/C=C\C[C@@H]1CN(S(=O)(=O)c2ccc3ccccc3c2)C[C@@H]1c1ccccc1O (relative stereo) [Example 29]	–
